Organism: Rattus norvegicus
Experiment: DrugMatrix - Regimen: Daily Repeat
Assay type: toxicity, organism-based, Sprague-Dawley
Design: regimen Daily Repeat, gender Male, age 6-8 weeks
Details: in vivo, po, route oral GAVAGE, vehicle 100 % WATER; for ABSOLUTE BASOPHIL / ABSOLUTE EOSINOPHIL / ABSOLUTE LYMPHOCYTE / ABSOLUTE MONOCYTE / ABSOLUTE SEGMENTED NEUTROPHIL / BASOPHIL / EOSINOPHIL / ERYTHROCYTE COUNT / HEMATOCRIT / HEMOGLOBIN / LEUKOCYTE COUNT / LYMPHOCYTE / MEAN CORPUSCULAR HEMOGLOBIN / MEAN CORPUSCULAR HEMOGLOBIN CONCENTRATION / MEAN CORPUSCULAR VOLUME / MONOCYTE / NEUTROPHIL / NUCLEATED RED BLOOD CELLS / PLATELET COUNT: tissue Blood; for ALANINE AMINOTRANSFERASE / ALBUMIN / ALKALINE PHOSPHATASE / ASPARTATE AMINOTRANSFERASE / BLOOD UREA NITROGEN / CARBON DIOXIDE / CHLORIDE / CHOLESTEROL / CREATINE PHOSPHOKINASE / CREATININE / GLUCOSE / LACTATE DEHYDROGENASE / LIPASE / PHOSPHORUS / POTASSIUM / SODIUM / TOTAL BILIRUBIN / TOTAL PROTEIN / URIC ACID: tissue Plasma
[1] = 300 mg/kg, 72 h, dose level Low, time 3 day
[2] = 300 mg/kg, 120 h, dose level Low, time 5 day
[3] = 1100 mg/kg, 72 h, dose level High, time 3 day
[4] = 1100 mg/kg, 120 h, dose level High, time 5 day

O=C(O)CCNC(=O)c1ccc(/N=N/c2ccc(O)c(C(=O)O)c2)cc1 [BALSALAZIDE]
ABSOLUTE BASOPHIL [1]: 0 CELLS/uL | ABSOLUTE EOSINOPHIL [1]: 0 CELLS/uL | ABSOLUTE LYMPHOCYTE [1]: 11801 CELLS/uL | ABSOLUTE MONOCYTE [1]: 66 CELLS/uL | ABSOLUTE SEGMENTED NEUTROPHIL [1]: 833 CELLS/uL | BASOPHIL [1]: 0% | EOSINOPHIL [1]: 0% | ERYTHROCYTE COUNT [1]: 5.38 x10E6/uL | HEMATOCRIT [1]: 33.73% | HEMOGLOBIN [1]: 13.5 G/DL | LEUKOCYTE COUNT [1]: 12.7 x10E3/uL | LYMPHOCYTE [1]: 93.33% | MEAN CORPUSCULAR HEMOGLOBIN [1]: 25.13 pg | MEAN CORPUSCULAR HEMOGLOBIN CONCENTRATION [1]: 40.03 G/DL | MEAN CORPUSCULAR VOLUME [1]: 62.7 fL | MONOCYTE [1]: 0.33% | NEUTROPHIL [1]: 6.33% | NUCLEATED RED BLOOD CELLS [1]: 0 /100WBC | PLATELET COUNT [1]: 922 x10E3/uL | ALANINE AMINOTRANSFERASE [1]: 56.33 u/L | ALBUMIN [1]: 4.23 G/DL | ALKALINE PHOSPHATASE [1]: 481.33 u/L | ASPARTATE AMINOTRANSFERASE [1]: 94 u/L | BLOOD UREA NITROGEN [1]: 17.33 mg/dL | CARBON DIOXIDE [1]: 29 mmol/L | CHLORIDE [1]: 103.67 MEQ/L | CHOLESTEROL [1]: 73.33 mg/dL | CREATINE PHOSPHOKINASE [1]: 306.67 u/L | CREATININE [1]: 0.22 mg/dL | GLUCOSE [1]: 159.33 mg/dL | LACTATE DEHYDROGENASE [1]: 328 u/L | LIPASE [1]: 8 u/L | PHOSPHORUS [1]: 13.87 mg/dL | POTASSIUM [1]: 6.3 MEQ/L | SODIUM [1]: 144.33 MEQ/L | TOTAL BILIRUBIN [1]: 0.2 mg/dL | TOTAL PROTEIN [1]: 5.93 G/DL | URIC ACID [1]: 1.5 mg/dL | ABSOLUTE BASOPHIL [2]: 0 CELLS/uL | ABSOLUTE EOSINOPHIL [2]: 53.33 CELLS/uL | ABSOLUTE LYMPHOCYTE [2]: 8092.67 CELLS/uL | ABSOLUTE MONOCYTE [2]: 26.67 CELLS/uL | ABSOLUTE SEGMENTED NEUTROPHIL [2]: 694 CELLS/uL | BASOPHIL [2]: 0% | EOSINOPHIL [2]: 0.67% | ERYTHROCYTE COUNT [2]: 5.99 x10E6/uL | HEMATOCRIT [2]: 38.2% | HEMOGLOBIN [2]: 14.6 G/DL | LEUKOCYTE COUNT [2]: 8.87 x10E3/uL | LYMPHOCYTE [2]: 91% | MEAN CORPUSCULAR HEMOGLOBIN [2]: 24.43 pg | MEAN CORPUSCULAR HEMOGLOBIN CONCENTRATION [2]: 38.2 G/DL | MEAN CORPUSCULAR VOLUME [2]: 63.9 fL | MONOCYTE [2]: 0.33% | NEUTROPHIL [2]: 8% | NUCLEATED RED BLOOD CELLS [2]: 0 /100WBC | PLATELET COUNT [2]: 965 x10E3/uL | ALANINE AMINOTRANSFERASE [2]: 61.67 u/L | ALBUMIN [2]: 4.17 G/DL | ALKALINE PHOSPHATASE [2]: 384.67 u/L | ASPARTATE AMINOTRANSFERASE [2]: 83.67 u/L | BLOOD UREA NITROGEN [2]: 17.67 mg/dL | CARBON DIOXIDE [2]: 28.67 mmol/L | CHLORIDE [2]: 102 MEQ/L | CHOLESTEROL [2]: 63.33 mg/dL | CREATINE PHOSPHOKINASE [2]: 238.33 u/L | CREATININE [2]: 0.22 mg/dL | GLUCOSE [2]: 182.67 mg/dL | LACTATE DEHYDROGENASE [2]: 142.67 u/L | LIPASE [2]: 12.33 u/L | PHOSPHORUS [2]: 14.5 mg/dL | POTASSIUM [2]: 6.43 MEQ/L | SODIUM [2]: 146.73 MEQ/L | TOTAL BILIRUBIN [2]: 0.2 mg/dL | TOTAL PROTEIN [2]: 6.07 G/DL | URIC ACID [2]: 2.17 mg/dL | ABSOLUTE BASOPHIL [3]: 0 CELLS/uL | ABSOLUTE EOSINOPHIL [3]: 0 CELLS/uL | ABSOLUTE LYMPHOCYTE [3]: 7596 CELLS/uL | ABSOLUTE MONOCYTE [3]: 55 CELLS/uL | ABSOLUTE SEGMENTED NEUTROPHIL [3]: 682.33 CELLS/uL | BASOPHIL [3]: 0% | EOSINOPHIL [3]: 0% | ERYTHROCYTE COUNT [3]: 5.29 x10E6/uL | HEMATOCRIT [3]: 33.57% | HEMOGLOBIN [3]: 13.27 G/DL | LEUKOCYTE COUNT [3]: 8.33 x10E3/uL | LYMPHOCYTE [3]: 91.33% | MEAN CORPUSCULAR HEMOGLOBIN [3]: 25.13 pg | MEAN CORPUSCULAR HEMOGLOBIN CONCENTRATION [3]: 39.5 G/DL | MEAN CORPUSCULAR VOLUME [3]: 63.47 fL | MONOCYTE [3]: 0.67% | NEUTROPHIL [3]: 8% | NUCLEATED RED BLOOD CELLS [3]: 0 /100WBC | PLATELET COUNT [3]: 833.67 x10E3/uL | ALANINE AMINOTRANSFERASE [3]: 62.67 u/L | ALBUMIN [3]: 4.33 G/DL | ALKALINE PHOSPHATASE [3]: 344.33 u/L | ASPARTATE AMINOTRANSFERASE [3]: 98.67 u/L | BLOOD UREA NITROGEN [3]: 15 mg/dL | CARBON DIOXIDE [3]: 32.67 mmol/L | CHLORIDE [3]: 101.67 MEQ/L | CHOLESTEROL [3]: 84.33 mg/dL | CREATINE PHOSPHOKINASE [3]: 333 u/L | CREATININE [3]: 0.49 mg/dL | GLUCOSE [3]: 160.33 mg/dL | LACTATE DEHYDROGENASE [3]: 159 u/L | LIPASE [3]: 12 u/L | PHOSPHORUS [3]: 11.9 mg/dL | POTASSIUM [3]: 5.97 MEQ/L | SODIUM [3]: 145.53 MEQ/L | TOTAL BILIRUBIN [3]: 0.27 mg/dL | TOTAL PROTEIN [3]: 6.1 G/DL | URIC ACID [3]: 0.67 mg/dL | ABSOLUTE BASOPHIL [4]: 0 CELLS/uL | ABSOLUTE EOSINOPHIL [4]: 0 CELLS/uL | ABSOLUTE LYMPHOCYTE [4]: 12609 CELLS/uL | ABSOLUTE MONOCYTE [4]: 37.67 CELLS/uL | ABSOLUTE SEGMENTED NEUTROPHIL [4]: 1253.33 CELLS/uL | BASOPHIL [4]: 0% | EOSINOPHIL [4]: 0% | ERYTHROCYTE COUNT [4]: 5.68 x10E6/uL | HEMATOCRIT [4]: 35.73% | HEMOGLOBIN [4]: 14.1 G/DL | LEUKOCYTE COUNT [4]: 13.9 x10E3/uL | LYMPHOCYTE [4]: 91.33% | MEAN CORPUSCULAR HEMOGLOBIN [4]: 24.87 pg | MEAN CORPUSCULAR HEMOGLOBIN CONCENTRATION [4]: 39.47 G/DL | MEAN CORPUSCULAR VOLUME [4]: 62.93 fL | MONOCYTE [4]: 0.33% | NEUTROPHIL [4]: 8.33% | NUCLEATED RED BLOOD CELLS [4]: 0 /100WBC | PLATELET COUNT [4]: 1338 x10E3/uL | ALANINE AMINOTRANSFERASE [4]: 55.33 u/L | ALBUMIN [4]: 4 G/DL | ALKALINE PHOSPHATASE [4]: 346.67 u/L | ASPARTATE AMINOTRANSFERASE [4]: 106 u/L | BLOOD UREA NITROGEN [4]: 17.67 mg/dL | CARBON DIOXIDE [4]: 27 mmol/L | CHLORIDE [4]: 104 MEQ/L | CHOLESTEROL [4]: 55.33 mg/dL | CREATINE PHOSPHOKINASE [4]: 414 u/L | CREATININE [4]: 0.14 mg/dL | GLUCOSE [4]: 163.67 mg/dL | LACTATE DEHYDROGENASE [4]: 452.33 u/L | LIPASE [4]: 10 u/L | PHOSPHORUS [4]: 12.77 mg/dL | POTASSIUM [4]: 6.29 MEQ/L | SODIUM [4]: 144.53 MEQ/L | TOTAL BILIRUBIN [4]: 0.17 mg/dL | TOTAL PROTEIN [4]: 5.57 G/DL | URIC ACID [4]: 1.53 mg/dL
